Reference: patent US20120124703A1, “NOVEL COPRINUS COMATUS AND TREMELLA MESENTERICA MUSHROOM STRAINS, PRODUCTS AND EXTRACTS THEREOF AND COMPOSITIONS COMPRISING THEM” (PALMED TEVA LTD, priority 2009, published 2012)
Read-outs that look alike come from different tables or passages of the source. Marks after values point to notes of the source that are not given here. *1 amine or outer side, *2 acyl side, *3 side chain or, on linkers, in order; H or OH if unused. Where a SMILES comes first, the peptide text is derived from it. Bridges are numbered along the chain shown (N, C = ends). Roman numbers before positions name the chains, in order. [ ]: non-standard residue; d: D form. Actinocin(9to1) = Cc1c2oc3c(C)ccc(C(=O)[*:1])c3nc-2c(C(=O)[*:2])c(N)c1=O; NMeV = CN[C@H](C(=O)O)C(C)C; Sar = CNCC(=O)O

Tests used:
Coprinus comatus lectin = test: Sugar-binding specificity: inhibition of lectin-induced hemagglutination by carbohydrates; format: biochemical; settings: for Inhibition of lectin hemagglutinating activity by sugar: Coprinus comatus biomass lectin
Protocol: Sugar-binding specificity of lectins. The investigation of inhibition of lectin-induced hemagglutination by various carbohydrates was performed in a manner analogous to the hemagglutination test. Sugar samples (0.3 M) were prepared in phosphate buffered saline. All of the dilutions were mixed with an equal volume (25 μL) of a solution of the lectin. The mixture was allowed to stand for 30 min at room temperature and then mixed with 50 μL of 2% rabbit erythrocyte suspension. Sugar-binding specificity was expressed as the minimum concentration of each sugar required for inhibition of hemagglutination of titer 4 of the lectin. N-Acetyl-D-galactosamine (GalNAc); N-Acetyl-D-glucosamine (GlcNAc), D(+)Galactose (Gal); D(+)Glucose, D(+)Lactose (Lac); D(+)Mannose, xylose, cellobiose, and dulcitol were tested for detection of sugar-binding specificity of lectins.

[1] = tested on: Tobacco mosaic virus (TMV), strain U1; format: in vivo; settings: Datura stramonium
From the text: (§1) Virus: Tobacco mosaic virus (TMV), strain U1;
(§2) Plants: Tobacco (Nicotiana tabacum L.) variety Immune 580 and Datura stramonium L., cultivated in a hothouse under conditions of natural lighting, humidity, and temperature. Plants at a stage of 4-6 leaves were used in the experiment.
Polysaccharides, extracted from culture liquid of Tremella mesenterica were employed in this study using the method of Kovalenko with some modifications. To isolate acid glucuronoxylomannan (GXM) from neutral polysaccharides, we applied its sedimentation from a water solution with acetone (1:1) in the presence of 0.05 M CaCl2. Gas chromatography was carried out on Sephadex G-50 (2.5×80 cm) in pyridinium-acetate buffer, pH 4.5 (4 mL pyridine and 10 mL AcOH in 1 L water) and the eluate was monitored by refractive index detector.
In in vitro experiments the water solutions of the total preparation, neutral polysaccharide preparations, and pure GXM at concentrations of 10, 100, 500, and 1000 μg/mL were added to a suspension of TMV (10 μg/mL). After incubation over the 30 min the left halves of datura's leaves were inoculated with this mixture. The right halves of leaves were inoculated with TMV at the same concentration without polysaccharides. The degree of inhibition of viral infection, or VIR, was counted (in percentage) according to the number of local lesions on the experimental and control halves of the leaves by the following formula: I=((K−D)/K) 100%, where I—is a degree of virus inhibition or level of AVR, %; K—is the number (size) of local lesions in the control; D—is the number (size) of local lesions in the experiment.

[2] = tested on: Tobacco mosaic virus (TMV), strain U1; test: Induction of resistance against TMV infection in Datura; format: in vivo; settings: Datura stramonium
Protocol: as §1, §2
(§3) Investigations of induced properties of GXM were carried out on the tobacco and datura plants. […] The two halves of leaves were inoculated by TMV (1-5 μg/mL). The degree of AVR was taken into account by the formula mentioned above.

[3] = tested on: Tobacco mosaic virus (TMV), strain U1; test: Induction of resistance against TMV infection in tobacco; format: in vivo, Nicotiana tabacum, variety Immune 580; settings: for Level of induced resistance, % / Number of local lesions per leaf, Experiment: Nicotiana tabacum Immune 580; for Level of resistance: GXM 1000 μg/mL, FIG. 11
From the text: Abscissa: interval between introduction of GXM and inoculation of TMV (days). Ordinate: the ratio (%) of the number of local lesions in the experiment (dark solid bars) and in control (textured light bars).
Abscissa: interval between introduction of GXM and inoculation of TMV (days). Ordinate: size of local lesions (mm) in the experiment (dark solid bars) and in control (textured light bars).
as §1, §2, §3

IκBα phosphorylation = test: pIκBα level in H2O2-stimulated MCF7 cells, Western immunoblot; format: cell-based
Protocol: Cell Lysis, Preparation of Total Cell Lysates. In order to measure the intracellular levels of certain proteins as a response to the crude fungal extracttreatments, each time after cells were collected, a total cell lysis was performed. The exact procedure of the total cell lysis is described below.
Cells were collected and washed 3 times with cold phosphate buffered saline (PBS) through centrifugation for 5 min, at 3,000 rpm, and 4° C. The final cell amounts were collected in Eppendorf tubes and the left over PBS from the last washing was discarded so that only the cell pellet was left in each tube. For cell lysis, each time a freshly prepared lysis buffer was used with the following content: 500-1000 μL, depending on the number of samples, of cell lysis reagent, protease inhibitor cocktail, and both phosphatase inhibitor cocktails 1 and 2 at the final concentration of 1%, and 0.3 M of phenylmethylsulfonyl fluoride (PMSF). […]
As a control, no H2O2 treatment was used, according to which the kinetics of pIκBα were determined. […]
Densitometric Analysis. Densitometric quantitative analyses of the protein bands, detected by Western blot, have been carried out using the TotalLab software and are presented as folds of the volumes of protein bands. […]

interferon (IFN) = test: IFN level in blood plasma of mice after per os biomass; format: in vivo; settings: dose 50 mg/animal
[4] = tested on: Tobacco mosaic virus (TMV), strain U1; test: Influence of actinomycin D on GXM-induced resistance to TMV; format: in vivo, Nicotiana tabacum, variety Immune 580; settings: FIG. 14
Protocol: Abscissa: variants of the experiment: 1—GXM; 2—mixture of GXM and AMD (10 μg/mL); 3—AMD (10 μg/mL) introduced 2 days after GXM; 4—AMD (20 μg/mL) introduced 2 days after GXM; 5—AMD (10 μg/mL). Ordinate: the ratio (%) of the quantity of local lesions in the experiment (dark solid bars) and in control (textured light bars).
When studying the GXM-induced mechanism of plant resistance, we used actinomycin D (AMD) inhibiting the DNA-dependent synthesis of mRNA by blocking RNA-polymerases. Solutions of AMD at the concentrations of 10 and 20 μg/mL and rhamnolipide (RL)−1 mg/mL, which were subepidermally introduced simultaneously or via definite periods of time after the GXM.

Compound: OC[C@@H](O)[C@H](O)[C@H](O)[C@@H](O)CO [dulcitol]
- Inhibition of lectin hemagglutinating activity by sugar (Coprinus comatus lectin): did not inhibit

Compound: O=C[C@H](O)[C@@H](O)[C@H](O[C@@H]1O[C@H](CO)[C@@H](O)[C@H](O)[C@H]1O)[C@H](O)CO [cellobiose]
- Inhibition of lectin hemagglutinating activity by sugar (Coprinus comatus lectin): did not inhibit

Compound: glucuronoxylomannan [GXM]
- Number of local lesions per leaf, Experiment ([1]; 10 μg/mL): 26.5
- Inhibition, % ([1]; 100 μg/mL): 16* %
- Number of local lesions per leaf, Experiment ([1]; 100 μg/mL): 4.5
- Number of local lesions per leaf, Experiment ([1]; 1000 μg/mL): 1.3
- Level of induced resistance, % ([2]; 100 μg/mL): 110%
- Number of local lesions per leaf, Experiment ([2]; 100 μg/mL): 71.2
- Level of induced resistance, % ([2]; 500 μg/mL): 90%
- Number of local lesions per leaf, Experiment ([2]; 500 μg/mL): 90.0
- Level of induced resistance, % ([2]; 1000 μg/mL): 14* %
- Number of local lesions per leaf, Experiment ([2]; 1000 μg/mL): 119.9
- Level of induced resistance, % ([2]; 2000 μg/mL): 33** %
- Number of local lesions per leaf, Experiment ([2]; 2000 μg/mL): 119.6
- Level of induced resistance, % ([3]; 100 μg/mL): 20%
- Number of local lesions per leaf, Experiment ([3]; 100 μg/mL): 98.1
- Level of induced resistance, % ([3]; 500 μg/mL): 20%
- Number of local lesions per leaf, Experiment ([3]; 500 μg/mL): 102.7
- Level of induced resistance, % ([3]; 1000 μg/mL): 17* %
- Number of local lesions per leaf, Experiment ([3]; 1000 μg/mL): 128.5
- Size of local lesions, experiment vs control ([3]; 1000 μg/mL, tobacco): reliable differences were not observed
- Level of induced resistance, % ([3]; 2000 μg/mL): 52** %
- Number of local lesions per leaf, Experiment ([3]; 2000 μg/mL): 63.4
- Growth (size) of TMV local lesions ([3]; 2500 μg/mL, tobacco, FIG. 13): intensifies the growth of viral lesions
- Development of AVR relative to TMV ([3]; 1000 and 2500 μg/mL, first day after the inducer, tobacco): induces the development of AVR
- Level of resistance ([3]; 5th day after the inducer, tobacco): 30%
- Level of resistance ([3]; 7th day after the inducer, tobacco): 20%

Compound: O=C[C@H](O)[C@@H](O)[C@H](O)CO [xylose]
- Inhibition of lectin hemagglutinating activity by sugar (Coprinus comatus lectin): did not inhibit

Compound: OC[C@H]1O[C@@H](O[C@H]2[C@H](O)[C@@H](O)C(O)O[C@@H]2CO)[C@H](O)[C@@H](O)[C@H]1O (stereo partly drawn) [Lactose, D(+)Lactose]
- MIC of saccharides (Coprinus comatus lectin; lactose, minimal concentration inhibiting hemagglutination): 780 µM

Compound: COc1cc(/C=C/C(=O)CC(=O)/C=C/c2ccc(O)c(OC)c2)ccc1O [curcumin]
- pIκBα level (IκBα phosphorylation; 10 μM, 100 μM H2O2, preliminary data): significantly inhibited
- Effect on IκBα phosphorylation (IκBα phosphorylation; MCF7, 10 min 100 μM H2O2, FIG. 2): high phospho-IkBα inhibitory effect

Compound: Poly I:C
- IFN titre (interferon (IFN); 6 hours): 320 units/ml
- IFN titre (interferon (IFN); 24 hours): 40 units/ml
- IFN titre (interferon (IFN); 48 hours): <20 units/ml

Compound: Cc1c2oc3c(C)ccc(C(=O)N[C@@H]4C(=O)N[C@H](C(C)C)C(=O)N5CCC[C@H]5C(=O)N(C)CC(=O)N(C)[C@@H](C(C)C)C(=O)O[C@@H]4C)c3nc-2c(C(=O)N[C@@H]2C(=O)N[C@H](C(C)C)C(=O)N3CCC[C@H]3C(=O)N(C)CC(=O)N(C)[C@@H](C(C)C)C(=O)O[C@@H]2C)c(N)c1=O [AMD, actinomycin D] (I: T[dV]P[Sar][NMeV] / II: T[dV]P[Sar][NMeV]; ester I:1-I:C, II:1-II:C; linker I:N-II:N via Actinocin(9to1))
- Inhibition of development of GXM-induced AVR ([4]; AMD 10 μg/mL): completely
- Inhibition of development of GXM-induced AVR ([4]; AMD 20 μg/mL): partly
